# Target: T1, PDE7A1 (Homo sapiens, UniProt Q13946)
# T1 construct: made in house; host or cells: Sf21 insect cells (baculovirus expression system)
# Test: In vitro inhibition of phosphodiesterase 7 (enzymatic activity, cAMP substrate 50 nM)
# Format: biochemical
# Settings: PDE7A1 expressed in Sf 21 insect cells; cAMP 50 nM; reaction 10 minutes; read-out: IC50 (PDE7)
# Procedure: The capacity of the compounds of the invention to inhibit cyclic nucleotide phosphodiesterases was evaluated by measuring their IC50 (concentration necessary to inhibit the enzymatic activity by 50%).
# PDE3A3, PDE4D3, and PDE7A1 were cloned and expressed in insect cells Sf 21 using the baculovirus expression system. The source of PDE103 and of PDE503 were human cell lines (respectively TPH1 human monocytes and MCF7 human breast adenocarcinoma). The various types of phosphodiesterases were obtained partially purified on an anion exchange column (Mono Q) according to a method adapted from Lavan B. E., Lakey T., Houslay M.D., Biochemical Pharmacology, 1989;38(22):4123-4136.
# Measurement of the enzymatic activity for the various types of PDE was then made according to a method adapted from Thompson W. J. et al., Advances in Cyclic Nucleotide Research, ed. G. Brooker et al. New York: Raven Press, 1979;10:69-92.
# The substrate used was cGMP for PDE1 and PDE5 and cAMP for PDE3, PDE4, and PDE7. The substrate concentration was 0.2 μM for PDE1, PDE3, and PDE5, 0.25 μM for PDE4, and 50 nM for PDE7.
# The enzymatic reaction was stopped after 1 hour for PDE1, PDE3, and PDE5 and 10 minutes for PDE4 and PDE7.
# T1 sequence (Q13946 whole entry, species assumed): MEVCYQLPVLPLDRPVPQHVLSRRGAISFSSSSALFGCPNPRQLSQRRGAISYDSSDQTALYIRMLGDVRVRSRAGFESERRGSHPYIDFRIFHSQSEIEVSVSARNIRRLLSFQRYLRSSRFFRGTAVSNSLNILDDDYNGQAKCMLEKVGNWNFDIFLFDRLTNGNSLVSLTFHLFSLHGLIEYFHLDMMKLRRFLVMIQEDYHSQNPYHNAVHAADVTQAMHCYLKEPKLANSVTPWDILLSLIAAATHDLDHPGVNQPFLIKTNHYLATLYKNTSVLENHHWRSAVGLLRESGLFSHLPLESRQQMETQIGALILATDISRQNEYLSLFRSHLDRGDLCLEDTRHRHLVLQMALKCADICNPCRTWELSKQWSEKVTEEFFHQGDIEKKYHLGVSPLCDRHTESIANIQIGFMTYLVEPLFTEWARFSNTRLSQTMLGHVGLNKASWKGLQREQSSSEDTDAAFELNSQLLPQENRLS
row,SMILES,IC50
1,"Cn1nc(-c2ccc(Cl)cc2)s/c1=N\[C@@H]1CCCC[C@H]1O (relative stereo) [Example I8, (1R*,2R*)-2-[5-(4-Chloro-phenyl)-3-methyl-3H-[1,3,4]thiadiazol-2-ylideneamino]-cyclohexanol]",0.45 µM
2,"Cn1nc(-c2ccc(S(C)(=O)=O)cc2)s/c1=N\[C@@H]1CCCC[C@H]1O (relative stereo) [Example I9, (1R*,2R*)-2-[5-(4-Methanesulfonyl-phenyl)-3-methyl-3H-[1,3,4]thiadiazol-2-ylideneamino-cyclohexanol]",0.28 µM
3,"Cn1nc(-c2ccc(Cl)cc2)s/c1=N\[C@@H]1CCCC[C@@H]1O (relative stereo) [I3,25, (1R*,2S*)-2-[5-(4-Chloro-phenyl)-3-methyl-3H-[1,3,4]thiadiazol-2-ylideneamino]-cyclohexanol]",1.2 µM
4,"Cn1nc(-c2ccc(Cl)cc2)s/c1=N\c1cccc(C(=O)O)c1 [Example I1, 3-[5-(4-Chloro-phenyl)-3-methyl-3H-[1,3,4]thiadiazol-2-ylideneamino]-benzoic acid]",0.15 µM
5,Cn1nc(-c2ccc(S(C)(=O)=O)cc2)s/c1=N\c1cccc(C(=O)O)c1 [Example I4],0.15 µM
6,"Cn1nc(-c2ccc(Cl)cc2)s/c1=N\C1CC2CCC1C2 (centres unmarked) [Example I7, Bicyclo[2.2.1]hept-2-yl-[5-(4-chloro-phenyl)-3-methyl-3H-[1,3,4]thiadiazol-2-ylidene]-amine]",1.05 µM
7,"Cn1nc(-c2ccc(C(F)(F)F)cc2)s/c1=N\C1CCCCC1 [Example I11, Cyclohexyl-[3-methyl-5-(4-trifluoromethyl-phenyl)-3H-[1,3,4]thiadiazol-2-ylidene]-amine]",0.98 µM
8,"Cn1nc(-c2ccncc2)s/c1=N\C1CCCCC1 [Example I12, Cyclohexyl-(3-methyl-5-pyridin-4-yl-3H-[1,3,4]thiadiazol-2-ylidene)-amine]",0.29 µM
9,"Cn1nc(-c2cccc(Cl)c2)s/c1=N\C1CCCCC1 [Example I13, [5-(3-Chloro-phenyl)-3-methyl-3H-[1,3,4]thiadiazol-2-ylidene]-cyclohexyl-amine]",0.7 µM
10,"Cn1nc(-c2ccc(C#N)cc2)s/c1=N\C1CCCCC1 [Example I14, 4-(5-Cyclohexylimino-4-methyl-4,5-dihydro-[1,3,4]thiadiazol-2-yl)-benzonitrile]",0.27 µM
11,"Cn1nc(-c2ccc(S(C)(=O)=O)cc2)s/c1=N\C1CCCCC1 [Example I15, Cyclohexyl-[5-(4-methanesulfonyl-phenyl)-3-methyl-3H-[1,3,4]thiadiazol-2-ylidene]-amine]",0.14 µM
12,"Cn1nc(-c2ccc(Cl)c(S(N)(=O)=O)c2)s/c1=N\C1CCCCC1 [Example I19, 2-Chloro-5-(5-cyclohexylimino-4-methyl-4,5-dihydro-[1,3,4]thiadiazol-2-yl)-benzenesulfonamide]",0.07 µM
13,"COC(=O)c1cccc(-c2nn(C)/c(=N/C3CCCCC3)s2)c1 [Example I21, 3-(5-Cyclohexylimino-4-methyl-4,5-dihydro-[1,3,4]thiadiazol-2-yl)-benzoic acid methyl ester]",0.15 µM
14,"Cn1nc(-c2ccc(O)c(O)c2)s/c1=N\C1CCCCC1 [Example I22, 4-(5-Cyclohexylimino-4-methyl-4,5-dihydro-[1,3,4]thiadiazol-2-yl)-benzene-1,2-diol; compound with trifluoro methanesulfonic acid]",1 µM
15,"COc1cc(-c2nn(C)/c(=N/C3CCCCC3)s2)cc(OC)c1O [Example I23, 4-(5-Cyclohexylimino-4-methyl-4,5-dihydro-[1,3,4]thiadiazol-2-yl)-2,6-dimethoxy-phenol]",0.85 µM
16,"Cn1nc(-c2ccc3cccc(O)c3n2)s/c1=N\C1CCCCC1 [Example I24, 2-(5-Cyclohexylimino-4-methyl-4,5-dihydro-[1,3,4]thiadiazol-2-yl)-quinolin-8-ol]",0.36 µM
17,"Cn1nc(-c2cnccn2)s/c1=N\C1CCCCC1 [Example I25, Cyclohexyl-(3-methyl-5-pyrazin-2-yl-3H-[1,3,4]thiadiazol-2-ylidene)-amine]",0.47 µM
18,"COc1ccc(/C=C/c2nn(C)/c(=N/C3CCCCC3)s2)cc1O [Example I26, 5-[(E)-2-(5-Cyclohexylimino-4-methyl-4,5-dihydro-[1,3,4]thiadiazol-2-yl)-vinyl]-2-methoxy-phenol]",0.4 µM
19,"COc1cc(-c2nn(C)/c(=N/C3CCCCC3)s2)ccc1O [Example I27, 4-(5-Cyclohexylimino-4-methyl-4,5-dihydro-[1,3,4]thiadiazol-2-yl)-2-methoxy-phenol]",0.46 µM

row,SMILES,IC50
1,"Cn1nc(-c2cccc3cccnc23)s/c1=N\C1CCCCC1 [Example I28, Cyclohexyl-(3-methyl-5-quinolin-8-yl-3H-[1,3,4]thiadiazol-2-ylidene)-amine]",0.23 µM
2,"CN(C)c1ccc(-c2nn(C)/c(=N/C3CCCCC3)s2)cc1 [Example I29, [4-(5-Cyclohexylimino-4-methyl-4,5-dihydro-[1,3,4]thiadiazol-2-yl)-phenyl]-dimethyl-amine]",0.3 µM
3,"Cn1nc(-c2ccc(S(N)(=O)=O)cc2)s/c1=N\C1CCCCC1 [Example I30, 4-(5-Cyclohexylimino-4-methyl-4,5-dihydro-[1,3,4]thiadiazol-2-yl)-benzenesulfonamide]",0.14 µM
4,"Cn1nc(-c2cc3cc(Cl)ccc3[nH]2)s/c1=N\C1CCCCC1 [Example I31, [5-(5-Chloro-1H-indol-2-yl)-3-methyl-3H-[1,3,4]thiadiazol-2-ylidene]-cyclohexyl-amine; compound with trifluoro-methanesulfonic acid]",0.23 µM
5,"COc1ccc(-c2nn(C)/c(=N/C3CCCCC3)s2)cc1O [Example I32, 5-(5-Cyclohexylimino-4-methyl-4,5-dihydro-[1,3,4]thiadiazol-2-yl)-2-methoxy-phenol; compound with 1,1,1-trifluoro-methanesulfonic acid]",0.23 µM
6,"Cn1nc(-c2ccc(O)cc2)s/c1=N\C1CCCCC1 [Example I33, 4-(5-Cyclohexylimino-4-methyl-4,5-dihydro-[1,3,4]thiadiazol-2-yl)-phenol; compound with 1,1,1-trifluoro-methanesulfonic acid]",0.24 µM
7,"COc1ccc(-c2nn(C)/c(=N/C3CCCCC3)s2)cc1OC [Example I34, Cyclohexyl-[5-(3,4-dimethoxy-phenyl)-3-methyl-3H-[1,3,4]thiadiazol-2-ylidene]-amine]",0.63 µM
8,"COc1ccc(-c2nn(C)/c(=N/C3CCCCC3)s2)cc1Br [Example I35, [5-(3-Bromo-4-methoxy-phenyl)-3-methyl-3H-[1,3,4]thiadiazol-2-ylidene]-cyclohexyl-amine]",0.58 µM
9,"Cn1nc(-c2cccc(O)c2)s/c1=N\C1CCCCC1 [Example I36, 3-(5-Cyclohexylimino-4-methyl-4,5-dihydro-[1,3,4]thiadiazol-2-yl)-phenol]",0.29 µM
10,"COC(=O)c1ccc(-c2nn(C)/c(=N/C3CCCCC3)s2)cc1 [Example I37, 4-(5-Cyclohexylimino-4-methyl-4,5-dihydro-[1,3,4]thiadiazol-2-yl)-benzoic acid methyl ester]",0.23 µM
11,"Cn1nc(-c2cccnc2)s/c1=N\C1CCCCC1 [Example I38, Cyclohexyl-(3-methyl-5-pyridin-3-yl-3H-[1,3,4]thiadiazol-2-ylidene)-amine]",0.34 µM
12,"Cn1nc(-c2cccc(S(N)(=O)=O)c2)s/c1=N\C1CCCCC1 [Example I39, 3-(5-Cyclohexylimino-4-methyl-4,5-dihydro-[1,3,4]thiadiazol-2-yl)-benzenesulfonamide]",0.2 µM
13,"Cn1nc(-c2ccc3c(c2)OCO3)s/c1=N\C1CCCCC1 [Example I40, (5-Benzo[1,3]dioxol-5-yl-3-methyl-3H-[1,3,4]thiadiazol-2-ylidene)-cyclohexyl-amine]",0.45 µM
14,"COc1cc(-c2nn(C)/c(=N/C3CCCCC3)s2)cc(OC)c1OC [Example I41, Cyclohexyl-[3-methyl-5-(3,4,5-trimethoxy-phenyl)-3H-[1,3,4]thiadiazol-2-ylidene]-amine]",1.3 µM
15,"Cn1nc(-c2ccc(Cl)cc2)s/c1=N\c1ccc(F)c(C(=O)O)c1 [I2,1, 5-[5-(4-Chloro-phenyl)-3-methyl-3H[1,3,4]thiadiazol-2-ylideneamino]-2-fluoro-benzoic acid]",0.13 µM
16,"Cn1nc(-c2ccccc2Cl)s/c1=N\C1CCCCC1 [I10,1, [5-(2-Chloro-phenyl)-3-methyl-3H-[1,3,4]thiadiazol-2-ylidene]-cyclohexyl-amine]",1.3 µM
17,"Cn1nc(-c2cc(Cl)cc(Cl)c2)s/c1=N\C1CCCCC1 [I17,1, Cyclohexyl-[5-(3,5-dichloro-phenyl)-3-methyl-3H-[1,3,4]thiadiazol-2-ylidene]-amine]",1.3 µM
18,"Cn1nc(-c2ccc(-c3ccccn3)s2)s/c1=N\C1CCCCC1 [I18,2, Cyclohexyl-[3-methyl-5-(5-pyridin-2-yl-thiophen-2-yl)-3H-[1,3,4]thiadiazol-2-ylidene]-amine]",0.32 µM
19,"COc1c(O)cc(-c2nn(C)/c(=N/C3CCCCC3)s2)cc1O [I18,3, 5-(5-Cyclohexylimino-4-methyl-4,5-dihydro[1,3,4]thiadiazol-2yl)-2-methoxy-benzene-1,3-diol; compound with trifluoro-methanesulfonic acid]",0.061 µM

# Source: patent US20030045557A1, “Thiadiazoles and oxadiazoles and their use as phosphodiesterase-7 inhibitors” (priority 2000, published 2003)
